Consider 19 compounds from patent publication US12319655B2, “RAF kinase inhibitors and methods of use thereof” (Deciphera Pharmaceuticals, LLC, priority 2021, dated 2025).

Each structure is given as a SMILES string.

Experiment [1] has as its target B-Raf kinase (SEQ. ID NO: 2) (Homo sapiens (Human), UniProt P15056). Put plainly: Biochemical Assay for B-Raf (1). Conditions: Table J, biochemical assay (1); read-out: BRAF (1). The method in brief: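 IC50 derived by four-parameter sigmoidal fit of percent inhibition, normalised to uninhibited and reference-inhibitor controls, using reaction rates over 4–5 h. Coupled spectrophotometric readout (NADH loss at 340 nm, 6 h, 30° C.); 1 mM ATP, 30.1 nM MEK, 0.13 nM B-Raf, pH 7.5 Tris buffer, 1% DMSO.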

A further experiment deals with WM3928 cells. Briefly: WM3928 Cell Proliferation Assay (1). It is filed as cell-based. In short, it runs like this:
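IC50 was derived from resazurin fluorescence (ex 540, em 600 nm) after a 6–7 h dye incubation. Before that, cells had 67–72 h of compound exposure at 37 °C, 5% CO2.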

Another experiment deals with Miapaca-2 cells. Put plainly: MiaPaca-2 Cell Proliferation Assay (1). The experiment is classed as cell-based. The conditions noted are these: Homo sapiens, MIA PaCa-2, single agent, read-out: MiaPaca2 (1) IC50. The method in brief:
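Resazurin was added after compound exposure and incubated 5-6 h, then fluorescence read at 540 nm excitation and 600 nm emission to give IC50.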

Sequence of B-Raf kinase (SEQ. ID NO: 2) (P15056 416-766): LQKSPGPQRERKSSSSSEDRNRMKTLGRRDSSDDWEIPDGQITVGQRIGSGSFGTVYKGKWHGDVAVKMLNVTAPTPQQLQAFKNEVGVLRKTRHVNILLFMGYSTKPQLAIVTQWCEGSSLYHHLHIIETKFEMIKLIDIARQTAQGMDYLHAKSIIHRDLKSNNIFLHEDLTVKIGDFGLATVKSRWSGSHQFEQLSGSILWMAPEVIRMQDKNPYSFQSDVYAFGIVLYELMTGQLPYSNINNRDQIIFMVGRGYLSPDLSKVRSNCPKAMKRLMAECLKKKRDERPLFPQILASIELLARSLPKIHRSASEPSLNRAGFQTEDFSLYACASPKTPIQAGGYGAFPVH

Consider `COC(=O)Nc1cc(-c2cccc(-c3cc(NC(=O)c4ccnc(C(C)(C)F)c4)cnc3C)c2)ncn1` [Example 404], for which the IC50 (in experiment [1]; in the experiment with WM3928 cells) was 100 to 500 nM in each case.

With `COC(=O)Nc1cc(-c2cncc(-c3cc(NC(=O)c4ccnc(C5(C#N)CC5)c4)ccc3C)c2)ncn1` [Example 405], the IC50 in experiment [1] was at most 100 nM; in the experiment with WM3928 cells it was at most 100 nM; in the experiment with Miapaca-2 cells, 500 to 1000 nM.

As to `Cc1ncc(NC(=O)c2ccnc(C(C)(C)F)c2)cc1-c1cncc(-c2cc(NC(=O)C3CC3)ncn2)c1` [Example 406], the IC50 in experiment [1] is at most 100 nM; with WM3928 cells, at most 100 nM; in the experiment on Miapaca-2 cells it was 500 to 1000 nM.

For `Cc1ncc(NC(=O)c2ccnc(C(C)(C)C#N)c2)cc1-c1cccc(-c2cnc3ccccn23)c1` [Example 407], the IC50 in experiment [1] lay within 500 to 1000 nM; in the experiment with WM3928 cells, 1000 to 10000 nM.

As for `CNC(=O)c1cc(-c2cncc(-c3cc(NC(=O)c4ccnc(C(C)(C)F)c4)c(F)cc3C)c2)ccn1` [Example 408], the IC50 (in experiment [1]; in the experiment with WM3928 cells) was 100 to 500 nM each time.

For the compound `COC(=O)Nc1cc(-c2cnnc(-c3cc(NC(=O)c4cn(C(C)C)nn4)ccc3C)c2)ccn1` [Example 409], the IC50 in experiment [1] is 100 to 500 nM; in the experiment with WM3928 cells, 1000 to 10000 nM.

`Cc1ncc(NC(=O)c2ccnc(C(C)(C)C#N)c2)cc1-c1cncc(-c2cc(NC(=O)C3CC3)ncn2)c1` [Example 410]: the figures for the IC50 (in experiment [1]; in the experiment with WM3928 cells; with Miapaca-2 cells) were at most 100 nM, at most 100 nM and 1000 to 10000 nM, respectively.

As for `Cc1ccc(NC(=O)c2ccnc(C(C)(C)F)c2)cc1-c1cncc(-c2cc(N)ncn2)c1` [Example 411], the IC50 in experiment [1] is at most 100 nM; in the experiment with WM3928 cells it was at most 100 nM; in the experiment on Miapaca-2 cells, 1000 to 10000 nM.

With `Cc1ccc(NC(=O)c2cn(C(C)C)nn2)cc1-c1cncc(-c2cc(NC(=O)C3CC3)ncn2)c1` [Example 412], the IC50 in experiment [1] is at most 100 nM; with WM3928 cells, at most 100 nM; with Miapaca-2 cells, 500 to 1000 nM.

`CNC(=O)c1cc(-c2cncc(-c3cc(NC(=O)c4ccnc(C(C)(C)F)c4)ccc3C)c2)ccn1` [Example 413]: the figures for the IC50 (in experiment [1]; in the experiment with WM3928 cells; in the experiment with Miapaca-2 cells) were at most 100 nM, at most 100 nM and 1000 to 10000 nM, respectively.

Turning to `COC(=O)Nc1cc(-c2cccc(-c3cc(NC(=O)Cn4cc(C(C)C)nn4)cnc3C)c2)ccn1` [Example 415], the results for the IC50 (in experiment [1]; in the experiment on WM3928 cells) were 500 to 1000 nM and 1000 to 10000 nM, respectively.

On to `Cc1ccc(NC(=O)c2ccnc(C(C)(C)C#N)c2)cc1-c1cncc(-c2cc(NC(=O)C(C)C)ncn2)c1` [Example 420], for which the IC50 (in experiment [1]; in the experiment on WM3928 cells) was at most 100 nM each time.

In the case of `Cc1ccc(NC(=O)c2ccnc(C(C)(C)C#N)c2)cc1-c1cncc(-c2cc(N)ncn2)c1` [Example 422], the IC50 (in experiment [1]; in the experiment on WM3928 cells) was 100 to 500 nM in each case.

As to `Cc1cc(F)c(NC(=O)c2ccnc(C(C)(C)F)c2)cc1-c1cncc(-c2cc(NC(=O)C3CC3)ncn2)c1` [Example 423], the IC50 (in experiment [1]; with WM3928 cells) was at most 100 nM in each case.

As to `Cc1cc(F)c(NC(=O)c2ccnc(C(C)(C)C#N)c2)cc1-c1cncc(-c2cc(NC(=O)C3CC3)ncn2)c1` [Example 424], the IC50 (in experiment [1]; in the experiment on WM3928 cells) was at most 100 nM throughout.

As to `COC(=O)Nc1cc(-c2cncc(-c3cc(NC(=O)c4ccnc(C(C)(C)F)c4)ccc3C)c2)ncn1` [Example 425], the IC50 (in experiment [1]; with WM3928 cells) was at most 100 nM each time.

As to `CNC(=O)c1cc(-c2cc(-c3cc(NC(=O)c4ccnc(C(C)(C)F)c4)ccc3C)nc(C)n2)ccn1` [Example 428], the IC50 (in experiment [1]; in the experiment with WM3928 cells) was 100 to 500 nM throughout.

Turning to `Cc1ccc(NC(=O)c2ccnc(C(F)F)c2)cc1-c1cncc(-c2cc(NC(=O)C3CC3)ncn2)c1` [Example 429], the IC50 (in experiment [1]; with WM3928 cells) was at most 100 nM throughout.

Take `Cc1ccc(NC(=O)c2ccnc(C(C)(C)F)c2)cc1-c1cncc(-c2ccnc3c2CC(=O)N3)c1` [Example 432]: the figures for the IC50 (in experiment [1]; in the experiment on WM3928 cells) were at most 100 nM and 100 to 500 nM, respectively.
